Common to all, as to assay type: cell-based
The subject of experiment [1] is Gardnerella vaginalis. In words: Gardnerella vaginalis plate count after treatment with gel compositions (Example 6). The procedure:
Gardnerella vaginalis was obtained from the American Type Culture Collection (ATCC #14018). The culture medium was Casman's medium base (BD 229010) with 5% rabbit blood (ATCC medium 70).
Initially, eight (8) solutions were formed as set forth below in Table 4.
Samples 1-2 were prepared by dissolving the KELCOGEL® (0.07 grams) and/or xylitol (0.44 grams) into 10 milliliters of water heated to between 70° C. to 80° C. Samples 3-4 and 6 were formed by first autoclaving a gallic acid stock solution (0.75 grams of gallic acid/20 mL water), autoclaving, and then adding 200 microliters of sterile gallic acid (0.0075 grams) to each sterile solution. Sample 5 was formed by dissolving 0.44 grams of xylitol in deionized water, followed by autoclaving. Sample 7 was formed by dissolving 0.44 grams of xylitol in sterilized growth medium for Gardnerella vaginalis and then filtering. The amount of xylitol was selected to yield isotonic solutions. […]
Upon formation, 1 milliliter of each control or sample solution was then added into a culture tube, followed by the addition of 0.8 milliliters of growth medium for Gardnerella vaginalis. […] After 24 and 48 hours, the optical density was measured for each sample at wavelengths of 450 and 595 nanometers. […] The number of colonies on each plate was counted using ProtoCol® software from Synbiosis of Frederick, Md. […]

The subject of experiment [2] is Gardnerella vaginalis. In words: Zone of inhibition on agar plates, Gardnerella vaginalis (Examples 8, 11). How it is done:
(§1) A microorganism culture of 10^5 cfu (colony forming units)/ml in a 1× phosphate buffered saline (PBS) solution (diluted from 10×PBS LIQUID CONCENTRATE from VWR Cat. No. EM-6507] was used. One milliliter of the solution was plated on proper agar plates, depending on which microorganism was being tested. The agar plates were incubated at 35° C. for 4 hours. Three 4-millimeter diameter wells were then punched in each agar plate. A test sample of 100 microliters of 5% xylitol in sterilized 2-N-morpholino ethane sulfonic buffer (0.1 M 2-[morpholino]-ethanesulfonic acid, 0.9% NaCl, pH 4.7, prepared from BupH™ MES Buffer Saline Pack from Cat. No. 28390, Pierce Biotechnology, Inc., Rockford, Ill.) was added to one well of each plate. Into each of the other two wells were added MES buffer and 1% benzyl quats (diluted from BARDAC.® 205M, from Lonza Inc., Fair Lawn, N.J.) as negative and positive controls, respectively. The plates were incubated overnight at 35° C.
(§2) The following day, the “zone of inhibition” for each sample was then measured for Gardnerella vaginalis and Lactobacillus acidophilus activity. The “zone of inhibition” is a circular zone formed around the agar plate in which the growth of the microorganism is inhibited. […] However, when growth is inhibited, a clear zone is observed. The diameter of this clear zone may thus be used as an indicator of antimicrobial effectiveness.
(§3) Sorbitol, glucose, and xylitol were tested as described in Example 8.

Experiment [3] concerns Lactobacillus acidophilus. In words: Zone of inhibition on agar plates, Lactobacillus acidophilus (Examples 8, 11). The procedure: as §1, §2, §3
The subject of experiment [4] is Gardnerella vaginalis. Put plainly: Optical density growth test, Gardnerella vaginalis (Example 9). Particulars: 2, 4, 6 and 24 hours, FIG. 5. The procedure:
(§4) Test compounds were dissolved in culture media to form a suspension. Control or xylitol solutions (0.9 milliliters) were filtered and added into culture tubes, and to this was added 0.1 milliliter of either the Gardnerella vaginalis or Lactobacillus acidophilus suspension at a concentration of around 10^6 cfu/milliliter. The culture tubes were then incubated overnight at 37° C., whereafter the optical density was measured at 2, 4, 6 and 24 hours by pipetting 100 microliters of the control or sample solutions into 96-well microplates, and then using a ThermoMax Microplate Reader (Molecular Devices of Sunnyvale, Calif.) to obtain the optical density readings at 590 or 600 nm wavelengths. […] The inhibition effect remained evident throughout the 24-hour experimental period.

Experiment [5] has as its system Lactobacillus acidophilus. In words: Optical density growth test, Lactobacillus acidophilus (Example 9). Particulars: 2, 4, 6 and 24 hours, FIG. 7. How it is done: as §4
Experiment [6] concerns Gardnerella vaginalis. Put plainly: Plate count after 6 hours treatment, Gardnerella vaginalis (Example 10). Particulars: all five concentrations, 1-5%. The procedure: (§5) Test compounds were dissolved in culture media to form a suspension. Control or xylitol solutions (0.9 milliliters) were filtered and added into culture tubes. To these solutions, 0.1 milliliter of the Gardnerella vaginalis or Lactobacillus acidophilus suspension was then added at a concentration of around 10^6 cfu/milliliter. The culture tubes were incubated at 37° C. for 6 hours. The samples in the culture tubes were then diluted at 1, 10 and 100 times, and 100 microliters of each dilution was plated onto agar plates with WASP (Whitely Automatic Spiral Plate) spiral plating equipment from Don Whitely Scientific Limited, USA. The plates were incubated overnight at 35° C., and the numbers of colonies were counted on each plate by either ProtoCol® from Synbiosis, Frederick, Md., USA Whitely Scientific Limited, USA or by hand count. The results are shown below in Tables 7-8 and in FIG. 6.

The test system of experiment [7] is Lactobacillus acidophilus. Put plainly: Plate count after 6 hours treatment, Lactobacillus acidophilus (Example 10). Particulars: 1% and 5% xylitol. The procedure:
as §5

Another experiment relates to Trichomonas vaginalis. Put plainly: Viable Trichomonas vaginalis cell count with xylitol (Example 12). How it is done:
Trichomonas vaginalis was obtained from the American Type Culture Collection (ATCC #30001). The culture medium was LYI-S-2 medium (ATCC medium 2154).
A sterile LYI-S-2 medium was prepared according to the manufacturer's instructions, and the pH of this medium was adjusted to pH 6.0 using 1 N HCl. Xylitol was then dissolved into the LYI-S-2 medium at concentrations of 0.5%, 3.0%, and 5.0% (wt/vol). 0.9 milliliters of xylitol and culture medium (as control) were also added into different culture tubes. Thereafter, 0.1 milliliter of Trichomonas vaginalis culture suspension (concentration of 1×10^6/milliliter) was added to each of the culture tubes, and then incubated at 35° C. on a 15 degree horizontal slant. The viable Trichomonas vaginalis cells in each tube were counted under a microscope after 24 and 48 hours. The above procedure was repeated four times for each concentration of xylitol and the control.

Another experiment has as its system Candida albicans. In words: Candida albicans viable cell count with xylitol (Example 14). Particulars: 24 hours; 1%, 2%, 3%, 4%, and 5.0% (wt/vol), FIG. 11. The procedure:
A YM culture medium was prepared according to the manufacturer's instructions, and the pH of this medium was adjusted to pH 6.0 using 1 N HCl. Xylitol was then dissolved into the YM medium at concentrations of 1%, 2%, 3%, 4%, and 5.0% (wt/vol). 0.9 milliliters of the culture medium were also added into a different culture tube as a control. Thereafter, 0.1 milliliter of Candida albicans culture suspension (concentration of 1×10^6/milliliter) was added to each of the culture tubes, and then incubated at 37° C. The viable Candida albicans cells in each tube were counted under a microscope after 24 hours. The above procedure was repeated four times for each concentration and the control.

The subject of experiment [8] is Gardnerella vaginalis. In words: Gardnerella vaginalis optical density with sugars and sugar derivatives (Example 15). Particulars: 24 hours; 1.0% (wt/vol), FIG. 12. The procedure: A growth medium for Gardnerella vaginalis was prepared according to the manufacturer's instructions, and the pH of this medium was adjusted to pH 6.0 using 1 N HCl. D-ribose (99%, Calbiochem), D-arabinose (98%, Alfa Aesar), D-xylose (Aldrich), D-lyxose (99%, Avovado), D-arabitol (97%, Alfa Aesar), adonitol (99%, Alfa Aesar), xylitol (99%, Alfa Aesar), xylitol (98%, Danisco), and xylitol (98%, Aldrich) were then dissolved into the growth medium at a concentration of 1.0% (wt/vol). 0.9 milliliters of the culture medium was also added into a different culture tube as a control. Thereafter, 0.1 milliliter of Gardnerella vaginalis culture suspension (concentration of 1×10^6/milliliter) was added to each of the culture tubes, and then incubated overnight at 37° C., and the optical density was then measured after 24 hours at a wavelength of 595 nanometers. This was accomplished by pipetting 100 microliters of the control or sample solutions into 96-well microplates, and then using a ThermoMax Microplate Reader from Molecular Devices of Sunnyvale, Calif. to obtain the optical density readings. The results are depicted in FIG. 12.

Setting [9] is: 5% in MES buffer pH 4.7, 100 microliters per well.
Setting [10] is: zone of inhibition testing, concentrations as in Tables 6 and 9.

Each structure is given as a SMILES string. “Also recorded” adds a separate entry of the source.

For `OC[C@@H](O)[C@H](O)[C@@H](O)CO` [xylitol], the “Average Plate Count” value in the experiment with Gardnerella vaginalis [1] (24-hr samples, 4.4 wt/vol % xylitol in growth medium) is listed as 2.40 × 10^4. In addition, the “Effect on Gardnerella vaginalis growth” value in the experiment on Gardnerella vaginalis [1] (Example 6) is recorded as “significant inhibition”. Moreover, the “Zone of inhibition, Gardnerella vaginalis” value with Gardnerella vaginalis [2] (setting [9]) and with Gardnerella vaginalis [2] (10%) was 4 mm in each case. Besides, the “Effect on Gardnerella vaginalis” value in the experiment with Gardnerella vaginalis [2] (setting [10]) was “inhibited; also recorded: inhibitory effect”. In addition, the “Zone of inhibition, Lactobacillus acidophilus” value in [3] (setting [9]) and in [3] (10%) was 0 mm each time. Moreover, the “Effect on Lactobacillus acidophilus” value in [3] (setting [10]) was “did not affect the growth”. Further, the “Inhibition of Gardnerella vaginalis growth (optical density)” value in the experiment on Gardnerella vaginalis [4] is “significant inhibition”. Moreover, the “Inhibition of Lactobacillus acidophilus growth (optical density)” value in experiment [5] is reported as “did not exhibit any significant inhibition”. Besides, the “Inhibition of Gardnerella vaginalis growth compared to control” value in the experiment with Gardnerella vaginalis [6] is on record as “significant inhibition”. Besides, the “Inhibition of Lactobacillus acidophilus growth” value in experiment [7] is “did not exhibit any significant inhibition”. The “Trichomonas vaginalis cell count versus control” value in the experiment with Trichomonas vaginalis (24 hours, 0.5%, 3.0%, and 5.0% (wt/vol), FIG. 8) is given as “significantly reduced”; with Trichomonas vaginalis (48 hours, FIG. 9) it was “even more significant inhibitory effect”. For the same molecule, the “Live Trichomonas vaginalis cells” value in the experiment with Trichomonas vaginalis (48 hours, 3% and 5% xylitol) was “No live Trichomonas vaginalis cells were observed”. The “Candida albicans cell count versus control” value in the experiment with Candida albicans is listed as “significantly reduced”. Further, in the experiment on Gardnerella vaginalis [8], the “Gardnerella vaginalis cell count versus control (optical density 595 nanometers)” value is given as “significantly reduced”.

As for `O=C[C@H](O)[C@H](O)[C@H](O)CO` [D-ribose], in the experiment with Gardnerella vaginalis [8], the “Gardnerella vaginalis cell count versus control (optical density 595 nanometers)” value was “significantly reduced”.

These data come from US7786176B2, “Vaginal treatment composition containing xylitol” (Kimberly-Clark Worldwide, Inc., priority 2005, dated 2010).
